Reference: publication PMC9981719, “A novel designed membrane-active peptide for the control of foodborne Salmonella enterica serovar Typhimurium” (Scientific Reports, 2023)
Where no end group is shown, it is not given here.

Columns and labels:
S. Typhimurium H1-001 [1] = type: cell-based, Salmonella enterica serovar Typhimurium; details: strain H1-001
From the text: (§1) All tests were done in triplicate.

[2] = test system: Salmonella Typhimurium ATCC 13311; type: cell-based, Salmonella enterica serovar Typhimurium; details: broth microdilution in MHB, 37 °C, 24 h, visible inspection, triplicate
From the text: as §1

S. Typhimurium H1-015 [3] = type: cell-based, Salmonella enterica serovar Typhimurium; details: strain H1-015
From the text: as §1

S. Typhimurium H1-011 [4] = type: cell-based, Salmonella enterica serovar Typhimurium; details: strain H1-011
From the text: as §1

[5] = test system: 16 drug-resistant S. Typhimurium and 4,5,12:i:- isolates from Thailand; type: cell-based, Salmonella enterica; details: summary over 16 isolates; nisin up to maximum concentration of 16,000 µg/ml
From the text: as §1

4,5,12:i:- H2-089 [6] = details: checkerboard
Experimental: (§2) Effects of the combination of A11 with nisin against S. Typhimurium ATCC 13311 and 10 drug-resistant S. Typhimurium and S. enterica isolates were determined by the checkerboard titration method. Briefly, 10 drug-resistant S. Typhimurium were grown to a concentration of 1 × 10^7 CFU/ml in fresh TSB. Aliquots (25 µl) of nisin (final concentrations of 0.5–16 mg/ml) and A11 (final concentrations of 0.98–250 µg/ml) were added into 96-well plates containing 50 µl of bacterial suspension and cultured at 37 °C. […] ICA is the concentration required to produce the same effect as compound A when used alone, ICB is the concentration required to produce the same effect as compound B when used alone. The CI results were interpreted as follows: a CI of less than 1 indicates synergistic effect, a CI equal to 1 indicates additive effect, and a CI of more than 1 indicates antagonistic effect.

S. Typhimurium H1-001 [7] = details: checkerboard
Experimental: as §2

S. Typhimurium H1-006 [8] = details: checkerboard
Experimental: as §2

4,5,12:i:- H2-039 [9] = details: checkerboard
Experimental: as §2

4,5,12:i:- H1-100 [10] = details: checkerboard
Experimental: as §2

S. Typhimurium H1-062 [11] = details: checkerboard
Experimental: as §2

S. Typhimurium ATCC13311 = details: checkerboard, TSB, 37 °C, 24 h
Experimental: as §2

S. Typhimurium H1-015 [12] = details: checkerboard
Experimental: as §2

S. Typhimurium H1-041 [13] = details: checkerboard
Experimental: as §2

S. Typhimurium H1-011 [14] = details: checkerboard
Experimental: as §2

4,5,12:i:- H2-042 [15] = details: checkerboard
Experimental: as §2

4,5,12:i:- H2-089 [16] = type: cell-based, Salmonella enterica 4,5,12:i:-; details: strain H2-089
From the text: as §1

4,5,12:i:- H1-024 = type: cell-based, Salmonella enterica 4,5,12:i:-; details: strain H1-024
From the text: as §1

4,5,12:i:- H2-071 = type: cell-based, Salmonella enterica 4,5,12:i:-; details: strain H2-071
From the text: as §1

4,5,12:i:- H2-039 [17] = type: cell-based, Salmonella enterica 4,5,12:i:-; details: strain H2-039
From the text: as §1

4,5,12:i:- H1-100 [18] = type: cell-based, Salmonella enterica 4,5,12:i:-; details: strain H1-100
From the text: as §1

4,5,12:i:- H2-067 = type: cell-based, Salmonella enterica 4,5,12:i:-; details: strain H2-067
From the text: as §1

4,5,12:i:- H2-010 = type: cell-based, Salmonella enterica 4,5,12:i:-; details: strain H2-010
From the text: as §1

4,5,12:i:- H2-047 = type: cell-based, Salmonella enterica 4,5,12:i:-; details: strain H2-047
From the text: as §1

4,5,12:i:- H2-042 [19] = type: cell-based, Salmonella enterica 4,5,12:i:-; details: strain H2-042
From the text: as §1

4,5,12:i:- H2-049 = type: cell-based, Salmonella enterica 4,5,12:i:-; details: strain H2-049
From the text: as §1

S. Typhimurium H1-006 [20] = assay: MIC/MBC against drug-resistant isolate; type: cell-based, Salmonella enterica serovar Typhimurium; details: strain H1-006
From the text: as §1

S. Typhimurium H1-062 [21] = assay: MIC/MBC against drug-resistant isolate; type: cell-based, Salmonella enterica serovar Typhimurium; details: strain H1-062
From the text: as §1

S. Typhimurium H1-041 [22] = assay: MIC/MBC against drug-resistant isolate; type: cell-based, Salmonella enterica serovar Typhimurium; details: strain H1-041
From the text: as §1

[23] = test system: S. Typhimurium ATCC 13311 and 10 drug-resistant S. Typhimurium and S. enterica isolates; assay: Checkerboard titration, A11 with nisin, summary over strains; type: cell-based, Salmonella enterica; details: summary over tested strains
Experimental: as §2

Nisin (ITSISLCTPGCKTGALMGCNMKTATCHCSIHVSK; not fully specified (some residues, bridges); also: lantibiotic nisin-A: thioether (lanthionine) rings and dehydrated residues, places not given here; UniProt P13068 24-57, looked up) [bacteriocin, lantibiotic produced by Lactococcus lactis subsp. lactis, approved food preservative]
MIC (S. Typhimurium H1-001 [1]): > 16,000 µg/ml
MIC [2]: 16,000 µg/ml
MIC (S. Typhimurium H1-015 [3]): > 16,000 µg/ml
MIC (S. Typhimurium H1-011 [4]): > 16,000 µg/ml
MICs against the 16 drug-resistant S. enterica isolates [5]: > 16,000 µg/ml
MIC (combination) (4,5,12:i:- H2-089 [6]; A11 combined with nisin): 500 µg/mL
MIC (alone) (4,5,12:i:- H2-089 [6]; TSB, 37 °C, 24 h): > 16,000 µg/ml
MIC (combination) (S. Typhimurium H1-001 [7]; A11 combined with nisin): 500 µg/mL
MIC (alone) (S. Typhimurium H1-001 [7]; TSB, 37 °C, 24 h): > 16,000 µg/ml
MIC (combination) (S. Typhimurium H1-006 [8]; A11 combined with nisin): 500 µg/mL
MIC (alone) (S. Typhimurium H1-006 [8]; TSB, 37 °C, 24 h): > 16,000 µg/ml
MIC (combination) (4,5,12:i:- H2-039 [9]; A11 combined with nisin): 500 µg/mL
MIC (alone) (4,5,12:i:- H2-039 [9]; TSB, 37 °C, 24 h): > 16,000 µg/ml
MIC (combination) (4,5,12:i:- H1-100 [10]; A11 combined with nisin): 500 µg/mL
MIC (alone) (4,5,12:i:- H1-100 [10]; TSB, 37 °C, 24 h): > 16,000 µg/ml
MIC (combination) (S. Typhimurium H1-062 [11]; A11 combined with nisin): 500 µg/mL
MIC (alone) (S. Typhimurium H1-062 [11]; TSB, 37 °C, 24 h): > 16,000 µg/ml
MIC (combination) (S. Typhimurium ATCC13311; A11 combined with nisin): 4000 µg/mL
MIC (alone) (S. Typhimurium ATCC13311): 16,000 µg/ml
MIC (combination) (S. Typhimurium H1-015 [12]; A11 combined with nisin): 500 µg/mL
MIC (alone) (S. Typhimurium H1-015 [12]; TSB, 37 °C, 24 h): > 16,000 µg/ml
MIC (combination) (S. Typhimurium H1-041 [13]; A11 combined with nisin): 500 µg/mL
MIC (alone) (S. Typhimurium H1-041 [13]; TSB, 37 °C, 24 h): > 16,000 µg/ml
MIC (combination) (S. Typhimurium H1-011 [14]; A11 combined with nisin): 500 µg/mL
MIC (alone) (S. Typhimurium H1-011 [14]; TSB, 37 °C, 24 h): > 16,000 µg/ml
MIC (combination) (4,5,12:i:- H2-042 [15]; A11 combined with nisin): 500 µg/mL
MIC (alone) (4,5,12:i:- H2-042 [15]; TSB, 37 °C, 24 h): > 16,000 µg/ml
MIC (4,5,12:i:- H2-089 [16]): > 16,000 µg/ml
MIC (4,5,12:i:- H1-024): > 16,000 µg/ml
MIC (4,5,12:i:- H2-071): > 16,000 µg/ml
MIC (4,5,12:i:- H2-039 [17]): > 16,000 µg/ml
MIC (4,5,12:i:- H1-100 [18]): > 16,000 µg/ml
MIC (4,5,12:i:- H2-067): > 16,000 µg/ml
MIC (4,5,12:i:- H2-010): > 16,000 µg/ml
MIC (4,5,12:i:- H2-047): > 16,000 µg/ml
MIC (4,5,12:i:- H2-042 [19]): > 16,000 µg/ml
MIC (4,5,12:i:- H2-049): > 16,000 µg/ml
MIC (S. Typhimurium H1-006 [20]): > 16,000 µg/ml
MIC (S. Typhimurium H1-062 [21]): > 16,000 µg/ml
MIC (S. Typhimurium H1-041 [22]): > 16,000 µg/ml
MIC of nisin in combination with A11 [23]: 500 µg/mL
